Non-standard residues stand in square brackets, D forms with d. No end group written: not given here. *: point of attachment. Dnp = O=[N+]([O-])c1ccc(*)c([N+](=O)[O-])c1; 2Abz = Nc1ccccc1C(=O)O
Experiments:
[1] = test system: C4b deposition from MBL-deficient human serum on solid-phase mannan; experiment: Functional complement (C4) deposition assay; assay type: biochemical; settings: for Complement activation capacity (in words): Example 4 titration, 1-100 μg/ml
Experimental: All quantitation assays were standardised using an international, primary standard pool serum (Statens Serum Institut, Copenhagen, Denmark), containing 3.3 μg MBL/ml serum. For the sandwich ELISA and the C4 deposition assay, a standard curve was made with 1:25, 1:50, 1:75, 1:100, 1:150 and 1:200 dilutions of this serum, tested in triplicate. Standard dilutions for the mannan binding ELISA were 1:25, 1:50, 1:100, 1:150, 1:200, 1:300 and 1:400. Diluents were as detailed below. An in-house secondary control was prepared from pooled normal donor plasma and run in triplicate on each test plate, the results plotted for each run. Results of any test runs, in which values obtained for the in-house control MBL were outside +/−2SD from the previously determined mean value, led to rejection of the whole run. Run to run standard curves were overlayed to ensure a constant slope and thus provide another sensitive means of quality control.
Microtitre plates (as above) were coated overnight at 4° C. with 1 μg/mL mannan (Sigma-Aldrich Pty Ltd, Castle Hill, Australia) in fresh 50 mM carbonate-bicarbonate buffer, pH 9.6. Normal donor plasmas were tested in triplicate, diluted to 1:25 in TBST with 15 mM CaCl2, pH 7.2 which was also the wash buffer. A 1:10 dilution was also tested and interpreted only to confirm low or near absent levels of C4 deposition in donors with low amounts of MBL. After 90 minutes at 22° C., wells were washed 5 times and MBL-deficient human serum (completely deficient in MBL, obtained with informed consent) diluted 1:20 in barbital buffer, […], 10 mM sodium barbitone and 5 mM CaCl2 was added to wells and incubated at 22° C. for 30 minutes to enable complement activation. Wells were washed 5 times and biotinylated rabbit anti-human C4 (Sigma-Aldrich Pty Ltd) biotinylated using Biotin Tag (Sigma-Aldrich Pty Ltd) which was added at 1:1500 in TBST. Following incubation at 22° C. for 90 minutes, wells were washed 5 times and 1:500 ExtrAvidin peroxidase (Sigma-Aldrich Pty Ltd) in TBST was added and incubated at 22° C. for 40 minutes. Colour development and reading was as for the quantitation assays.
1 μl of Statens Serum Institut (SSI) MBL Standard was arbitrarily assigned 1 unit of C4 deposition activity. The assay was standardised against the SSI standard. Between run CV for the assay at 1:25 was 9.4%.
The positive control for MASP-2 activity was MASP containing, affinity-purified MBL complex. All fractions obtained in Example 1 were considered MASP-depleted with MASP activity measured as slope/sec less than 2.3 (range 0.5-2.3). […] Both MASP-depleted fractions and the MBL-MASP complex were titrated to provide MBL protein concentrations at 1 to 100 μg/ml. Fractions were assayed in parallel in the mannan-binding and C4-deposition assays as described in this document. The result from the Mannan-binding assay was plotted against C4 activity for each fraction.
The fractions supplied in Example 3 were pooled according to total protein concentration. […] The two MASP-depleted MBL pools were again titrated in the range of 1-100 μg/ml in parallel with the MBL-MASP complex. All samples were assayed on both the Mannan-binding and C4-deposition assays in parallel. Actual MBL quantification (mannan-binding assay) results were graphed against corresponding C4 activation capability for the fraction.

[2] = test system: MASPs in purified MBL-MASP complex; experiment: Substrate cleavage assay: kinetic constants of MASP proteolytic activity on synthetic C4-based substrates; assay type: biochemical; settings: proteolytic activity of MASPs in purified MBL-MASP complex on the synthetic substrate; sigmoidal kinetics
Experimental: For quantitative measurements, typically the signal emitted by the label is measured from the beginning of the reaction and the results used to obtain an initial rate. Substrates consisting only of the residues N-terminal to the cleavage site of C4 show normal Michaelis-Menten kinetics for their cleavage by both C1s and the MBL-MASP complex. This means that the dependence of the initial velocity for the cleavage reaction on substrate concentration can be described by a rectangular hyperbola and the constants Km (Michaelis constant which equates to the affinity between enzyme and substrate) and Vmax (maximal velocity of the reaction) can be derived from a non-linear regression fit of the data. […]
The substrate (2Abz-[…]-Lys(Dnp)-NH2) includes the four amino acids before and after the C4 cleavage site and an aminobenzoic acid (Abz) fluorescent group attached to its N-terminal end. […] The change in fluorescence can then be measured and is proportional to the proteolytic activity of the enzyme.
The substrate and enzymes (C1s (10 μg/mL) or purified MBL material) are incubated for several minutes in a fluorescence plate reader set at 37° C. 100 μL of diluted substrate is then transferred into wells containing 100 μL diluted enzyme (C1s or purified MBL material) and the kinetics of fluorescence is measured as follows: excitation=320 nm; emission=420 nm. […]

MASP-depleted Pool 3-7: pool of MASP-depleted MBL fractions 3-7, total protein 85 μg/ml
Complement activation capacity (in words) [1]: reached excess
C4 ([1]; MBL 1.124 ug/mL, Table 3): 0.043 U/ul
C4 ([1]; MBL 1.677 ug/mL, Table 3): 0.104 U/ul
C4 ([1]; MBL 3.905 ug/mL, Table 3): 0.25 U/ul
C4 ([1]; MBL 5.617 ug/mL, Table 3): 0.38 U/ul
C4 ([1]; MBL 7.151 ug/mL, Table 3): 0.506 U/ul
C4 ([1]; MBL 7.796 ug/mL, Table 3): 0.55 U/ul
C4 ([1]; MBL 9.377 ug/mL, Table 3): 0.596 U/ul
C4 ([1]; MBL 14.045 ug/mL, Table 3): 0.718 U/ul
C4 ([1]; MBL 20 ug/mL, Table 3): 0.825 U/ul
C4 ([1]; MBL 40 ug/mL, Table 3): 0.954 U/ul
C4 ([1]; MBL 80 ug/mL, Table 3): xs
C4 ([1]; MBL 85 ug/mL, Table 3): xs

2Abz-GLQRALEI-Lys(Dnp)-NH2 ([2Abz]GLQRALEIK(Dnp)-NH2; N-terminus assumed; SMILES CC[C@H](C)[C@H](NC(=O)[C@H](CCC(=O)O)NC(=O)[C@H](CC(C)C)NC(=O)[C@H](C)NC(=O)[C@H](CCCNC(=N)N)NC(=O)[C@H](CCC(N)=O)NC(=O)[C@H](CC(C)C)NC(=O)CNC(=O)c1ccccc1N)C(=O)N[C@@H](CCCCNc1ccc([N+](=O)[O-])cc1[N+](=O)[O-])C(N)=O) [C4 (P4-P4′), quenched fluorescent substrate with the four amino acids before and after the C4 cleavage site]
Affinity constant K0.5 [2]: 6.50 ± 0.32 µM

MASP-depleted Frac. 3: fraction 3 of purified MASP-depleted MBL from the Example 1 Sephacryl S-300 column, 40 μg/mL
C4 ([1]; MBL 1.02 ug/mL, Table 2): 0.107 U/ul
C4 ([1]; MBL 2.1 ug/mL, Table 2): 0.202 U/ul
C4 ([1]; MBL 2.57 ug/mL, Table 2): 0.359 U/ul
C4 ([1]; MBL 5.65 ug/mL, Table 2): 0.568 U/ul
C4 ([1]; MBL 7.97 ug/mL, Table 2): 0.761 U/ul
C4 ([1]; MBL 10.53 ug/mL, Table 2): 0.818 U/ul
C4 ([1]; MBL 12 ug/mL, Table 2): xs
C4 ([1]; MBL 16 ug/mL, Table 2): xs
C4 ([1]; MBL 20 ug/mL, Table 2): xs
C4 ([1]; MBL 30 ug/mL, Table 2): xs
C4 ([1]; MBL 40 ug/mL, Table 2): xs

MASP Pool 8-9: pool of MASP-depleted MBL fractions 8 and 9, total protein 35 μg/ml
Complement activation capacity (in words) [1]: reached the high assay limit
C4 ([1]; MBL 1.122 ug/mL, Table 3): 0.049 U/ul
C4 ([1]; MBL 2.032 ug/mL, Table 3): 0.108 U/ul
C4 ([1]; MBL 4.278 ug/mL, Table 3): 0.189 U/ul
C4 ([1]; MBL 6.506 ug/mL, Table 3): 0.31 U/ul
C4 ([1]; MBL 7.362 ug/mL, Table 3): 0.403 U/ul
C4 ([1]; MBL 8.995 ug/mL, Table 3): 0.435 U/ul
C4 ([1]; MBL 10.205 ug/mL, Table 3): 0.48 U/ul
C4 ([1]; MBL 12.718 ug/mL, Table 3): 0.552 U/ul
C4 ([1]; MBL 20 ug/mL, Table 3): 0.595 U/ul
C4 ([1]; MBL 30 ug/mL, Table 3): 0.776 U/ul
C4 ([1]; MBL 35 ug/mL, Table 3): 0.969 U/ul

MASP-depleted Frac. 5: fraction 5 of purified MASP-depleted MBL from the Example 1 Sephacryl S-300 column, 80 μg/mL
C4 ([1]; MBL 1.32 ug/mL, Table 2): 0.081 U/ul
C4 ([1]; MBL 2.49 ug/mL, Table 2): 0.137 U/ul
C4 ([1]; MBL 5.11 ug/mL, Table 2): 0.304 U/ul
C4 ([1]; MBL 7.83 ug/mL, Table 2): 0.417 U/ul
C4 ([1]; MBL 8.79 ug/mL, Table 2): 0.465 U/ul
C4 ([1]; MBL 10 ug/mL, Table 2): 0.671 U/ul
C4 ([1]; MBL 12 ug/mL, Table 2): 0.716 U/ul
C4 ([1]; MBL 16 ug/mL, Table 2): 0.805 U/ul
C4 ([1]; MBL 20 ug/mL, Table 2): 0.762 U/ul
C4 ([1]; MBL 30 ug/mL, Table 2): 0.906 U/ul
C4 ([1]; MBL 40 ug/mL, Table 2): xs
C4 ([1]; MBL 80 ug/mL, Table 2): xs
